Square brackets hold non-standard residues; d marks the D form. Peptide text beside a SMILES is read from it. * marks the point of attachment. Sta = CC(C)C[C@H](N)[C@@H](O)CC(=O)O; Isovaleryl = CC(C)CC(=O)*

For orientation: Ki means a dissociation constant, usually derived from enzyme kinetics or from competition with a known ligand.

For assay [1], the system named is 13D11. Nature of the assay: Effect of common protease inhibitors on the antibody-catalyzed reaction. It counts as biochemical, mouse. The following applies: inhibitor concentrations sufficient to abolish the respective proteases. On the procedure: Extensive purification of 13D11 was carried out. Monoclonal antibodies were purified from ascites using standard procedures of lipid extraction and ammonium sulfate precipitation followed by column chromatography on protein A, DEAE, Mono Q, and finally Alkyl Superose (Pharmacia, Piscataway, N.J.). Finally, nine common inhibitors of known proteases were tested at concentrations sufficient to completely abolish all for their effect on the antibody-catalyzed reaction.

In assay [2] the test system is 13D11. As to the kind of experiment: Inhibition of 13D11-catalyzed hydrolysis by haptens/inhibitors. The format is biochemical, mouse. On the procedure: Antibody 13D11 (14.5 μM) was re-screened for activity toward 10 (nominally 500 μM) in the absence and presence of 63 μM (RT-2 hapten)(D/L mixture).
Until this point, 13D11 antibody had been purified by Protein A and DEAE chromatography. To determine whether the activity toward 10 was due to a contaminating enzyme, 13D11 was further purified on a Mono Q column (Pharmacia) by FPLC.
Hapten Ki was determined by quantitating the effect of the concentration of 1b or 1c on the velocity of 13D11 hydrolysis of 2b. Rates obtained at fixed antibody and substrate concentrations were fitted to the equation; V1/Vo=(2[Ab]−[l]−Ki′+{([l]+Ki′−2[Ab])^2+4Ki′2[Ab]}^0.5)/4[Ab], where Vi and Vo are, respectively, the velocities in the presence and absence of hapten, 2[Ab] is the total concentration of antibody combining sites, [l] is hapten concentration, Ki′=Ki/(1+[S]/Km), and Ki is the inhibition constant (S. Cha, Biochem. Pharmacol. 1975, 24, 2177).
Control experiments verified that the hydrolytic activity was not due to a contaminating protease. […] (The (L)-hapten spatially corresponds to the (D)-amide substrate.) The inhibition constant, Ki, was determined by an HPLC assay to be 14.0 (±+1.6) μM.
The substrate specificity of 13D11 was more rigorously determined by monitoring its activity towards the dansylated amides 9 and 10, dansylated esters 11 and 12, acetylated amides 13 and 14, and acetylated esters 15 and 16. The esterolytic activity of 13D11 with the dansylated or acetylated esters (45 μM-1.0 mM) was examined at 25° C. in an assay mixture containing MTEN, 0.1 mM EDTA, 0.1 mM PMSF, 0.01% NaN3, and 13D11 (7-14 μM). Aliquots were removed from the incubation mixtures every hour for 4 hours and kept in ice prior to analysis. The dansylated esters were analyzed by TLC while the acetylated esters were subjected to HPLC analysis. […] The observed esterase activity may be due to a trace of a contaminating enzyme in the antibody preparation.
The amidase activity of 13D11 was likewise examined using the same buffer system as the one mentioned above in the presence of 13D11 (17 μM), and the acetylated amide 13 or 14 (0.5-1.0 mM). […] The ability of 13D11 to discriminate between the dansylated amides 9 and 10 was investigated by determining the formation of the hydrolysis product by TLC. The reaction samples containing 150 μM of either amide 9 or 100 30 μM 13D11, with or without hapten 5 (0.5 mM) in the above buffer system were assayed after 5 days of incubation at 25° C. […] Thus, the activity of the catalytic antibody requires the alkyl linker that was present during immunization, and has a stereospecificity opposite of known natural proteolytic enzymes.
An important control in the examination of the catalytic activity of 13D11 IgG molecule is the retention of the haptenic and substrate binding abilities by its Fab′ fragment. Accordingly, the amidase activities of 13D11 (whole IgG molecule) and the 13D11 Fab′ fragment were compared. The reaction mixtures contained MTEN, 1 mM EDTA, 0.1 mM PMSF, 0.01% NaN3, 150 μM dansylated amide 9 or 100 μM 13D11 (IgG) or Fab′, with or without (assumed) hapten 5 (0.5 mM). […] The esterase activity for the Fab′ fragment was also examined in the above buffer system containing 100 μM of either ester 11 or 12, and 7 μM 13D11 (Fab′). Aliquots were removed at various time points and analyzed by TLC. […] The contaminating enzyme in the antibody solution may have been removed during the purification of the Fab′ fragment.

As to `O=C(O)CN(CCN(CC(=O)O)CC(=O)O)CC(=O)O` [EDTA], the “effect on amidolytic activity of 13D11” value in the assay with 13D11 [1] is recorded as “essentially unaffected”. Still for that read-out and setting: for aprotinin the value was “essentially unaffected”; for `CC(C)CC(=O)N[C@H](C(=O)N[C@H](C(=O)N[C@@H](CC(C)C)[C@@H](O)CC(=O)N[C@@H](C)C(=O)N[C@@H](CC(C)C)[C@@H](O)CC(=O)O)C(C)C)C(C)C` [pepstatin] (Isovaleryl-VV[Sta]A[Sta]-OH), “Partial inhibition”; for `CC(C)C[C@H](NC(=O)[C@@H](O)[C@H](N)Cc1ccccc1)C(=O)O` [bestatin], “Partial inhibition”. Still for that read-out and setting: then `CC(=O)N[C@@H](CC(C)C)C(=O)N[C@@H](CC(C)C)C(=O)N[C@H](C=O)CCCNC(=N)N` [leupeptin], with “essentially unaffected”. Still for that read-out and setting: for `CC(C)C[C@H](NP(=O)(O)O[C@@H]1O[C@@H](C)[C@H](O)[C@@H](O)[C@H]1O)C(=O)N[C@@H](Cc1c[nH]c2ccccc12)C(=O)O` [phosphoramidon] the value was “essentially unaffected”. Consider `O=S(=O)(O)CCNC1CCCCC1` [CHES], for which the “effect of buffer on hydrolysis of 10 by 13D11” value in the assay on 13D11 [2] (CHES buffer tried as an alternative to Tris) is on record as “inhibit the hydrolysis”. As for `CC(C)C[C@H](NC(=O)[C@H]1O[C@@H]1C(=O)O)C(=O)NCCCCN=C(N)N` [Compound E-64], the “effect on amidolytic activity of 13D11” value in the assay with 13D11 [1] is listed as “Partial inhibition”. As to `CC(=O)NCCCCCC(=O)NC(Cc1ccccc1)P(C)(=O)O` (centres unmarked) [Compound 5], on 13D11 [2] (13D11 hydrolysis of 10, HPLC assay, read-out: inhibition constant, Ki), the Ki was 14 µM. Moreover, the “inhibition of esterase activity toward 11 in the 13D11 preparation” value with 13D11 [2] (25° C., MTEN) is “not inhibited”. Besides, in the assay on 13D11 [2] (hapten 5 0.5 mM, 5 days at 25° C., TLC), the “inhibition of 13D11 amidase activity toward 10” value is given as “inhibition of its amidase activity”. Moreover, in the assay on 13D11 [2] (hapten 5 0.5 mM, dansylated amide 10), the “inhibition of amidase activities of 13D11 IgG and Fab′” value is reported as “inhibited”. The “inhibition of 13D11 by hapten enantiomers” value with 13D11 [2] (hydrolysis of 10) is “inhibited 13D11”. For the molecule `O=S(=O)(F)Cc1ccccc1` [PMSF], in the assay on 13D11 [1], the “effect on amidolytic activity of 13D11” value is “essentially unaffected”.

The values are drawn from patent US20020045231A1, “Catalytic antibodies which hydrolyze primary amides and methods for eliciting such antibodies” (priority 1999, published 2002).
